According to US6841684B2, “Imidiazoles having reduced side effects” (Allergan, Inc., priority 1997, dated 2005):
Counter-ions that a name gives are not always drawn.

Target: T1, rat α2B (RNG gene) receptor (Rattus norvegicus, UniProt P19328)
T1 construct: expressed in transfected cells; host or cells: NIH-3T3 cells, calcium phosphate cotransfection
T1 sequence (P19328 1-453): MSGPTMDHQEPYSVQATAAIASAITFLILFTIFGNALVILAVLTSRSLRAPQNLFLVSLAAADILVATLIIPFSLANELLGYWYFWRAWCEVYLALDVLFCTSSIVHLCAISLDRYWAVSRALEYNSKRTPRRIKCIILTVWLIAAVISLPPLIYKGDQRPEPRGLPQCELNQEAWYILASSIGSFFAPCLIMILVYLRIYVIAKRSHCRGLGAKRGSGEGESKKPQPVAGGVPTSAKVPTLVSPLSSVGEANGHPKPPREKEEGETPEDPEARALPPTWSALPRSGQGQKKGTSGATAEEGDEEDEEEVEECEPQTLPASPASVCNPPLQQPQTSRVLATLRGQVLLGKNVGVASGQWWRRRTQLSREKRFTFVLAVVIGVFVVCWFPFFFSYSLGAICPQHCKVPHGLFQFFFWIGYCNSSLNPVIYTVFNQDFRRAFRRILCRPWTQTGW
Assay: RSAT (Receptor Selection and Amplification Technology) assay, alpha 2B
Format: cell-based
Details: ratio of maximal effect to that of standard full agonist oxymetazoline
Description: This preferential activity can be determined in a variety of functional assays such as Cyclic AMP Production, Shimizu et al, J. Neurochem. […] In the study below, the RSAT assay on cells that have been transiently transfected with the human α2A (c10 gene), rat α2B (RNG gene) and human α2C (c4 gene) receptors was used.
The assay measures a receptor-mediated loss of contact inhibition that results in selective proliferation of receptor-containing cells in a mixed population of confluent cells. The increase in cell number is assessed with an appropriate transfected marker gene such as b-galactosidase, the activity of which can be easily measured in a 96-well format. Receptors that activate the G protein, Gq, elicit this response. Alpha2 receptors, which normally couple to Gi, activate the RSAT response when coexpressed with a hybrid Gq protein that has a Gi receptor recognition domain, called Gq/i5^2.
NIH-3T3 cells are plated at a density of 2×10^6 cells in 15 cm dishes and maintained in Dulbecco's modified Eagle's medium supplemented with 10% calf serum. One day later, cells are cotransfected by calcium phosphate precipitation with mammalian expression plasmids encoding p-SV-b-galactosidase (5-10 mg), receptor (1-2 mg) and G protein (1-2 mg). 40 mg salmon sperm DNA may also be included in the transfection mixture. Fresh media is added on the following day and 1-2 days later, cells are harvested and frozen in 50 assay aliquots. Cells are thawed and 100 ml added to […] aliquots of various concentrations of drugs in triplicate in 96-well dishes. Incubations continue 72-96 hr at 37°. After washing with phosphate-buffered saline, b-galactosidase enzyme activity is determined by adding 200 ml of the chromogenic substrate (consisting of 3.5 mM o-nitrophenyl-b-D-galactopyranoside and 0.5% nonidet P-40 in phosphate buffered saline), incubating overnight at 30° and measuring optical density at 420 nm. The absorbence is a measure of enzyme activity, which depends on cell number and reflects a receptor-mediated cell proliferation. The EC50 and maximal effect of each drug at each alpha2 receptor is determined. The efficacy or intrinsic activity is calculated as a ratio of the maximal effect of the drug to the maximal effect of a standard full agonist for each receptor subtype.

Compared with `O=C1c2ccccc2OCC1Cc1c[nH]cn1` (stereo not shown) [Example B-2b, 3-(1H-imidazol-4(5)-ylmethyl)chroman-4-one], `O=C1c2ccccc2CC1Cc1c[nH]cn1` (stereo not shown) [Example B-7b, 2-(1H-imidazol-4(5)-ylmethyl)indan-1-one] is lower in “Intrinsic Activity Relative to Oxymetazoline, Alpha 2B” value: 0.77 for the first, 0.3 for the second.

First: c1ccc2oc(Cc3c[nH]cn3)cc2c1 [Example C-10, 4(5)-benzofuran-2-ylmethyl-1H-imidazole]
Second: C1=C(Cc2c[nH]cn2)COc2ccccc21 [Example 1J]
The “Intrinsic Activity Relative to Oxymetazoline, Alpha 2B” value of the first is lower: 0.48 for the first, 0.5 for the second.

Compared with `CCc1ccc(Cc2c[nH]cn2)o1` [Example C-11, 4(5)-(5-ethylfuran-2-ylmethyl)-1H-imidazole], `c1coc(Cc2c[nH]cn2)c1` [Example C-5, 4(5)-furan-2-ylmethyl-1H-imidazole] is higher in “Intrinsic Activity Relative to Oxymetazoline, Alpha 2B” value: 0.5 for the first, 1.1 for the second.

Going from `O=C1/C(=C/c2c[nH]cn2)CSc2ccccc21` [Example B-5a, 3-(1H-imidazol-4(5)-ylmethylene)thiochroman-4-one] to `O=C1/C(=C/c2c[nH]cn2)CCCc2ccccc21` [Example B-11b, 6-(1H-imidazol-4(5)-ylmethylene)-6,7,8,9-tetrahydrobenzocyclohepten-5-one], the “Intrinsic Activity Relative to Oxymetazoline, Alpha 2B” value falls from 0.5 to 0.3.

Going from `O=C1C(Cc2c[nH]cn2)CCC2NCCCC12` (stereo not shown) [Example Q-5, 6-(1H-imidazol-4(5)-yl-methyl)-octahydroquinolin-5-one] to `C1=C(C2CC2)CCCC1Cc1c[nH]cn1` (stereo not shown) [Example 1L], the “Intrinsic Activity Relative to Oxymetazoline, Alpha 2B” value falls from 1.0 to 0.7.

Compared with `CCCCCC1=CCC(Cc2c[nH]cn2)CC1` (stereo not shown) [Example X-3, 4(5)-(4-Pentyl-cyclohex-3-enylmethyl)-1H-imidazole, but-2-enedioic acid salt], `CCC1=CCC(Cc2c[nH]cn2)CC1` (stereo not shown) [Example X-2, 4(5)-(4-Ethyl-cyclohex-3-enylmethyl)-1H-imidazole, but-2-enedioic acid salt] is lower in “Intrinsic Activity Relative to Oxymetazoline, Alpha 2B” value: 0.87 for the first, 0.56 for the second.

Going from `c1cc2c(cn1)CC(Cc1c[nH]cn1)CC2` (stereo not shown) [Example P-2, 7-(1H-imidazol-4(5)-ylmethyl)-5,6,7,8-tetrahydro-isoquinoline, fumarate] to `c1cnc2c(c1)CC(Cc1c[nH]cn1)CC2` (stereo not shown) [Example Q-4, 6-(1H-imidazol-4(5)-ylmethyl)-5,6,7,8-tetrahydro-quinoline, dihydrochloride], the “Intrinsic Activity Relative to Oxymetazoline, Alpha 2B” value rises from 0.4 to 0.8.

Compared with `CC1=CCCCC1Cc1cnc[nH]1` (stereo not shown) [Example 1I], `c1ccc2c(c1)SCCC2Cc1cnc[nH]1` (stereo not shown) [Example 1-B] is lower in “Intrinsic Activity Relative to Oxymetazoline, Alpha 2B” value: 0.8 for the first, 0.7 for the second.

First: c1ccc(Sc2c[nH]cn2)cc1 [H, 4(5)-phenylsulfanyl-1H-imidazole]
Second: O=C1c2ccccc2CCC1Cc1c[nH]cn1 (stereo not shown) [Example B-3a]
The “Intrinsic Activity Relative to Oxymetazoline, Alpha 2B” value of the first is higher: 0.93 for the first, 0.8 for the second.

Going from `CC1=C(C)CC(Cc2c[nH]cn2)CC1` (stereo not shown) [Example W-1, 4(5)-(3,4-Dimethyl-cyclohex-3-enylmethyl)-1H-imidazole, but-2-enedioic acid salt] to `CCC1=C(C)CCC(Cc2c[nH]cn2)C1` (stereo not shown) [Example 1D], the “Intrinsic Activity Relative to Oxymetazoline, Alpha 2B” value rises from 0.55 to 0.6.

First: CC1CC(Cc2c[nH]cn2)Cc2ccccc21 (stereo not shown) [Example B-4a, 4(5)-(4-methyl-1,2,3,4-tetrahydronaphthalen-2-ylmethyl)-1H-imidazole]
Second: CC1CC(Cc2c[nH]cn2)C(=O)c2ccccc21 (stereo not shown) [Example B-4b, 2-(1H-imidazol-4(5)-ylmethyl)-4-methyl-3,4-dihydro-2H-naphthalen-1-one]
The “Intrinsic Activity Relative to Oxymetazoline, Alpha 2B” value of the first is higher: 0.75 for the first, 0.7 for the second.

Compared with `COCC1=CCCC(Cc2c[nH]cn2)C1` (stereo not shown) [Example 1E], `CC1=CCC(Cc2c[nH]cn2)CC1` (stereo not shown) [Example X-1, 4(5)-(4-Methyl-cyclohex-3-enylmethyl)-1H-imidazole, but-2-enedioic acid salt] is lower in “Intrinsic Activity Relative to Oxymetazoline, Alpha 2B” value: 1 for the first, 0.8 for the second.

Compared with `C1=C2CCCCC2CCC1Cc1c[nH]cn1` (stereo not shown) [Example N-2, 4(5)-(2,3,4,4a,5,6,7,8-octahydronaphthalen-2-ylmethyl)-1H-imidazole], `CCC1=CC(Cc2c[nH]cn2)CCC1` (stereo not shown) [Example 1P] is higher in “Intrinsic Activity Relative to Oxymetazoline, Alpha 2B” value: 0.5 for the first, 0.7 for the second.

Compared with `CCC1=CCCCC1Cc1c[nH]cn1` (stereo not shown) [Example 1N], `c1ccc2c(c1)CCCC2Cc1c[nH]cn1` (stereo not shown) [Example 1H] is lower in “Intrinsic Activity Relative to Oxymetazoline, Alpha 2B” value: 0.7 for the first, 0.6 for the second.

Compared with `c1ccc2c(c1)OCCC2Cc1cnc[nH]1` (stereo not shown) [Example 1C], `c1ccc2c(c1)CCCC(Cc1c[nH]cn1)C2` (stereo not shown) [Example B-11a, 4(5)-(6,7,8,9-tetrahydro-5H-benzocyclohepten-6-ylmethyl)-1H-imidazole] is higher in “Intrinsic Activity Relative to Oxymetazoline, Alpha 2B” value: 0.8 for the first, 0.9 for the second.

Going from `C1=CCC(Cc2c[nH]cn2)CC1` (stereo not shown) [Example W-2, 4(5)-Cyclohex-3-enylmethyl-1H-imidazole, but-2-enedioic acid salt] to `Cl.c1nc(CC2CCC3SCCC3C2)c[nH]1` (stereo not shown) [Example B-9c, 5-(octahydrobenzo[b]thiophen-5-ylmethyl)-1H-imidazole, hydrochloride], the “Intrinsic Activity Relative to Oxymetazoline, Alpha 2B” value falls from 0.6 to 0.3.

Compared with `c1nc(CC2CCC3=C(CCCC3)C2)c[nH]1` (stereo not shown) [Example N-3, 4(5)-(1,2,3,4,5,6,7,8-octahydronaphthalen-2-ylmethyl)-1H-imidazole, fumarate], `Brc1csc(Cc2c[nH]cn2)c1` [Example C-12, 4(5)-(4-bromothiophen-2-ylmethyl)-1H-imidazole] is higher in “Intrinsic Activity Relative to Oxymetazoline, Alpha 2B” value: 0.75 for the first, 1.3 for the second.

Compared with `Cc1ccsc1Cc1cnc[nH]1` [4(5)-(3-methyl-thiophen-2-ylmethyl)-1H-imidazole, reference compound], `O=C1/C(=C\c2c[nH]cn2)CCc2ncccc21` [Example Q-1, (Z)-6-(1H-imidazol-4(5)-ylmethylene)-7,8-dihydro-6H-quinolin-5-one] is lower in “Intrinsic Activity Relative to Oxymetazoline, Alpha 2B” value: 1.4 for the first, 0.75 for the second.

For `C[C@@]12CCCCC1=C[C@@H](Cc1c[nH]cn1)CC2` [Example S, 4(5)-(4a-methyl-2,3,4,4a,5,6,7,8-octahydro-naphthalen-2-ylmethyl)-1H-imidazole, but-2-enedioic acid salt], the “Intrinsic Activity Relative to Oxymetazoline, Alpha 2B” value was “.6”.

Tested on: conscious cynomolgus monkeys
Assay: Cardiovascular side effects (blood pressure, heart rate) after i.v. administration
Format: in vivo, cynomolgus monkey
Details: i.v. 50 μg/kg, up to 6 hours; + with * = increase from base levels
Description: Cardiovascular measurements were made in a different group of monkeys using a BP 100S automated sphygmomanometer (Nippon Colin,. Japan).

With `Cc1ccsc1Cc1cnc[nH]1` [4(5)-(3-methyl-thiophen-2-ylmethyl)-1H-imidazole, reference compound] the “Maximum % Decrease From Pretreatment Levels, Heart Rate” value was 23 ± 4%.

`Cc1ccsc1Cc1cnc[nH]1` [4(5)-(3-methyl-thiophen-2-ylmethyl)-1H-imidazole, reference compound] was tested, and the “Maximum % Decrease From Pretreatment Levels, Mean Arterial Blood Pressure” value was 9 ± 3%.

Same assay, conditions: i.v. 167 μg/kg, up to 6 hours; + with * = increase from base levels

With `Cc1ccsc1Cc1cnc[nH]1` [4(5)-(3-methyl-thiophen-2-ylmethyl)-1H-imidazole, reference compound] the “Maximum % Decrease From Pretreatment Levels, Heart Rate” value was 32 ± 8%.

In the case of `Cc1ccsc1Cc1cnc[nH]1` [4(5)-(3-methyl-thiophen-2-ylmethyl)-1H-imidazole, reference compound], the “Maximum % Decrease From Pretreatment Levels, Mean Arterial Blood Pressure” value is reported as 8 ± 6%.

Same assay, conditions: i.v. 500 μg/kg, up to 6 hours; + with * = increase from base levels

`O=C1c2ccccc2OCC1Cc1c[nH]cn1` (stereo not shown) [Example B-2b, 3-(1H-imidazol-4(5)-ylmethyl)chroman-4-one] and `c1coc(Cc2c[nH]cn2)c1` [Example C-5, 4(5)-furan-2-ylmethyl-1H-imidazole] are within error of each other in “Maximum % Decrease From Pretreatment Levels, Heart Rate” value: 6.4 ± 3.6% for the first, 7.1 ± 3.9% for the second.

`O=C1c2ccccc2OCC1Cc1c[nH]cn1` (stereo not shown) [Example B-2b, 3-(1H-imidazol-4(5)-ylmethyl)chroman-4-one] and `c1coc(Cc2c[nH]cn2)c1` [Example C-5, 4(5)-furan-2-ylmethyl-1H-imidazole] are within error of each other in “Maximum % Decrease From Pretreatment Levels, Mean Arterial Blood Pressure” value: 5.7 ± 1.4% for the first, 3.9 ± 2.8% for the second.

Same assay, conditions: intravenous administration, monkeys

For `Cc1ccsc1Cc1cnc[nH]1` [4(5)-(3-methyl-thiophen-2-ylmethyl)-1H-imidazole, reference compound], the “effect on heart rate (in words)” value was “weak effect on heart rate”.
